SMILES strings stand for the structures. Calls of active or inactive are those of the source. No rule for the calls is given here.

The data set relates to rodent carcinogenicity bioassays, tumor incidence. The data set can be described thus: CCRIS carcinogenicity studies. An outline of the steps: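 NCI-built, expert-reviewed records of carcinogenicity and related test outcomes (mutagenicity, tumor promotion/inhibition) compiled from published and report sources, historical span 1985-2011, not updated.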

Take `ClC1=C(Cl)[C@]2(Cl)C3C(Cl)C(Cl)CC3[C@@]1(Cl)C2(Cl)Cl` (some centres not stated): the carcinogen call reads like this: (Species: MOUSE, Strain/Sex: B6C3F1/FEMALE, Route: ORAL, Dose: 0, 30.1, 63.8 PPM IN DIET, TWA, Dose: 0, 30.1, 63.8 PPM IN DIET, TWA, Tumor Site: Type of Lesion: LIVER: HEPATOCELLULAR CARCINOMA) “active; positive”; (Species: MOUSE, Strain/Sex: B6C3F1/MALE, Route: ORAL, Dose: 0, 29.9, 56.2 PPM IN DIET, TWA, Dose: 0, 29.9, 56.2 PPM IN DIET, TWA, Tumor Site: Type of Lesion: LIVER: HEPATOCELLULAR CARCINOMA) “active; positive”; (Species: MOUSE, Strain/Sex: B6C3F1/MALE, Route: ORAL, Dose: 0, 55 PPM IN DIET BEGINNING AT 63 D OF AGE, AT 8 MO OF AGE DOSE INCREASED TO 60 PPM AND CONTINUED UNTIL 491 D OF AGE (ST, Tumor Site: Type of Lesion: LIVER: HEPATOCELLULAR ADENOMA, HEPATOCELLULAR CARCINOMA) “active; positive”; (Species: MOUSE, Strain/Sex: B6C3F1/MALE, Route: ORAL, Dose: 0, 55 PPM IN DIET BEGINNING AT 63 D OF AGE, AT 8 MO OF AGE DOSE WAS INCREASED TO 60 PPM FOR DURATION OF STUDY (STUDY DUR, Tumor Site: Type of Lesion: LIVER: HEPATOCELLULAR ADENOMA, HEPATOCELLULAR CARCINOMA) “active; positive”; (Species: MOUSE, Strain/Sex: B6D2F1/MALE, Route: ORAL, Dose: 0, 55 PPM IN DIET BEGINNING AT 63 D OF AGE, AT 8 MO OF AGE DOSE INCREASED TO 60 PPM AND CONTINUED UNTIL 491 D OF AGE (ST, Tumor Site: Type of Lesion: LIVER: HEPATOCELLULAR ADENOMA, HEPATOCELLULAR CARCINOMA) “active; positive”; (Species: MOUSE, Strain/Sex: B6D2F1/MALE, Route: ORAL, Dose: 0, 55 PPM IN DIET BEGINNING AT 63 D OF AGE, AT 8 MO OF AGE DOSE WAS INCREASED TO 60 PPM FOR DURATION OF STUDY (STUDY DUR, Tumor Site: Type of Lesion: LIVER: HEPATOCELLULAR ADENOMA, HEPATOCELLULAR CARCINOMA) “active; positive”. The carcinogen call was “active; positive” (Species: MOUSE, Strain/Sex: CD-1/MALE,FEMALE, Route: DIET, Dose: 0, 5, 25, 50 MG/KG FOR 18 MO, Tumor Site: Type of Lesion: LIVER: HEPATOCELLULAR CARCINOMA); “inactive; negative” (Species: RAT, Strain/Sex: OSBORNE-MENDEL/FEMALE, Route: ORAL, Dose: 0, 120.8, 241.5PPM IN DIET, TWA, Dose: 0, 120.8, 241.5PPM IN DIET, TWA); “inactive; negative” (Species: RAT, Strain/Sex: OSBORNE-MENDEL/MALE, Route: ORAL, Dose: 0, 203.5, 407.0PPM IN DIET, TWA, Dose: 0, 203.5, 407.0PPM IN DIET, TWA).
`CN(C)[C@@H]1C(=O)C(C(N)=O)=C(O)[C@@]2(O)C(=O)C3=C(O)c4c(O)cccc4[C@@](C)(O)[C@H]3[C@H](O)[C@@H]12`: the carcinogen call (Species: MOUSE, Strain/Sex: B6C3F1/FEMALE, Route: ORAL, Dose: 0, 6300, 12500 PPM IN DIET FOR 103 WK (STUDY DURATION: 103 WK), Dose: 0, 6300, 12500 PPM IN DIET FOR 103 WK (STUDY DURATION: 103 WK)) is “inactive; negative”; the carcinogen call (Species: MOUSE, Strain/Sex: B6C3F1/MALE, Route: ORAL, Dose: 0, 6300, 12500 PPM IN DIET FOR 103 WK (STUDY DURATION: 103 WK), Dose: 0, 6300, 12500 PPM IN DIET FOR 103 WK (STUDY DURATION: 103 WK)) is “inactive; negative”; the carcinogen call (Species: RAT, Strain/Sex: F344/FEMALE, Route: ORAL, Dose: 0, 25000, 50000 PPM IN DIET FOR 103 WK (STUDY DURATION: 103 WK), Dose: 0, 25000, 50000 PPM IN DIET FOR 103 WK (STUDY DURATION: 103 WK), Tumor Site: Type of Lesion: PITUITARY GLAND: ADENOMA) is given as “equivocal”; the carcinogen call (Species: RAT, Strain/Sex: F344/MALE, Route: ORAL, Dose: 0, 25000, 50000 PPM IN DIET FOR 103 WK (STUDY DURATION: 103 WK), Dose: 0, 25000, 50000 PPM IN DIET FOR 103 WK (STUDY DURATION: 103 WK), Tumor Site: Type of Lesion: ADRENAL GLAND: PHEOCHROMOCYTOMA) is “equivocal”.
`COC(=O)c1cc(Oc2ccc(Cl)cc2Cl)ccc1[N+](=O)[O-]`: the carcinogen call by setting is: (Species: Mouse, Strain/Sex: B6C3F1/Female (60/sex/group), Route: Oral, Dose: 0, 50, 200, 1000 ppm in feed for 24 mo, Dose: 0, 50, 200, 1000 ppm in feed for 24 mo) “inactive; negative; purity 98.3%”; (Species: Mouse, Strain/Sex: B6C3F1/Male (60/sex/group), Route: Oral, Dose: 0, 50, 200, 1000 ppm in feed for 24 mo, Dose: 0, 50, 200, 1000 ppm in feed for 24 mo, Tumor Site: Type of Lesion: Liver: Significant increase in hepatic adenomas and carcinomas at highest dose) “active; positive; purity 98.3%”; (Species: Rat, Strain/Sex: Sprague-Dawley/Female (50/sex/group), Route: Oral, Dose: 0, 500, 1580, 5000 ppm in feed for 104 wk, Dose: 0, 500, 1580, 5000 ppm in feed for 104 wk) “inactive; negative; purity 98%”; (Species: Rat, Strain/Sex: Sprague-Dawley/Male (50/sex/group), Route: Oral, Dose: 0, 500, 1580, 5000 ppm in feed for 104 wk, Dose: 0, 500, 1580, 5000 ppm in feed for 104 wk) “inactive; negative; purity 98%”.
In the case of `CCCCNN`, the carcinogen call (Species: MOUSE, Strain/Sex: SWISS/FEMALE, Route: ORAL, Dose: 0, 0.0125% SOLUTION IN DRINKING WATER DAILY FOR LIFE FOR AN AVERAGE DAILY INTAKE OF 0, 1.3 MG (STUDY DURATION: 130 WK), Dose: 0, 0.0125% SOLUTION IN DRINKING WATER DAILY FOR LIFE FOR AN AVERAGE DAILY INTAKE OF 0, 1.3 MG (STUDY DURATION: 130 WK), Tumor Site: Type of Lesion: LUNG: ADENOMA, LUNG: ADENOMA OR ADENOCARCINOMA) was “active; positive” and the carcinogen call (Species: MOUSE, Strain/Sex: SWISS/MALE, Route: ORAL, Dose: 0, 0.0125% SOLUTION IN DRINKING WATER DAILY FOR LIFE FOR AN AVERAGE DAILY INTAKE OF 0, 2.1 MG (STUDY DURATION: 130 WK), Dose: 0, 0.0125% SOLUTION IN DRINKING WATER DAILY FOR LIFE FOR AN AVERAGE DAILY INTAKE OF 0, 2.1 MG (STUDY DURATION: 130 WK), Tumor Site: Type of Lesion: LUNG: ADENOMA, LUNG: ADENOMA OR ADENOCARCINOMA) is “active; positive”.
With `C#C[C@]1(O)CC[C@H]2[C@@H]3CCC4=C(CCC(=O)C4)[C@H]3CC[C@@]21C`, the carcinogen call reads like this: (Species: MOUSE, Route: ORAL, Tumor Site: Type of Lesion: MAMMARY GLAND, PITUITARY GLAND) “active; positive”; (Species: RAT, Route: ORAL, Tumor Site: Type of Lesion: LIVER, MAMMARY GLAND, PITUITARY GLAND, Tumor Site: Type of Lesion: LIVER, MAMMARY GLAND, PITUITARY GLAND) “active; positive”.
`CCO[Si](CCCOCC1CO1)(OCC)OCC` (configuration not stated): the carcinogen call (Species: MOUSE, Strain/Sex: C3H/MALE, Route: DERMAL, Dose: 0, 2 MG IN ACETONE 3/WK FOR DURATION OF STUDY (STUDY DURATION: LIFETIME)) is “inactive; negative”.

Source of the values: PubChem BioAssay AID1259411 (Chemical Carcinogenesis Research Information System (CCRIS), 2018).
